Results reported in patent publication US20220304929A1, “LIPIDS FOR DELIVERY OF CHARGED MATERIAL, FORMULATIONS THEREOF AND METHOD FOR MAKING SAME” (INTEGRATED NANOTHERAPEUTICS INC., priority 2019, published 2022).
Entries after “also recorded” stand apart in the source; their conditions may differ.

Experiments:
[1] = LNP particle size and polydispersity by dynamic light scattering; type: physicochemical
[2] = Peptide incorporation into LNP (Peptide:Lipid ratio; BCA or CBQCA protein quantification); type: physicochemical
Experimental: (§1) Lipid concentrations were determined by measuring total cholesterol using the Cholesterol E enzymatic assay kit from Wako Chemicals USA (Richmond, Va.).
Quantification of protein/peptide was performed with the use of either the BCA Protein Assay (Pierce) or the CBQCA Protein Quantitation Kit (Invitrogen) according to the manufacturer's instructions.

factor VII (FVII) = test: LNP-siRNA activity in the mouse Factor VII model; type: in vivo; conditions: C57Bl/6 mice, 24 hours post-injection; for Activity in mediating FVII gene-silencing (residual serum FVII levels): i.v. tail vein, 0.03-0.3 mg/kg siRNA
Experimental: Lipid nanoparticle (LNP) formulations containing cationic lipids of the disclosure and FVII siRNA were injected via a tail vein in C57Bl/6 wild-type mice and the levels of FVII in plasma was measured post injection. The mice were injected with LNP-siRNA at doses of 0.03 (left bar), 0.1 (middle bar) and 0.3 mg/kg (right bar). The cationic lipids incorporated in the LNPs were INT-A001, INT-A002, INT-A003 and INT-A007.
LNPs prepared as described in Example 2 containing siRNA against factor VII (FVII) were diluted with PBS such that injection volumes were maintained at 10 mL/kg body weight and administered (based on siRNA concentration) intravenously via tail vein in 6 to 8 weeks old female C57Bl/6 mice (Charles River Laboratories, Wilmington, Mass.). At 24 hours post-injection, animals were euthanized and blood was collected via intracardiac sampling. Blood samples were allowed to coagulate at 4° C. overnight and the serum was separated followed by centrifugation for 15 min at 12,000 rpm. The serum FVII levels were determined using the Biophen VII chromogenic assay (Aniara, Mason, Ohio) according to the protocol of the manufacturer.

[3] = Apparent pKa of LNP systems (TNS fluorescence assay); type: physicochemical; conditions: LNP containing ionizable lipid and FVII siRNA
Experimental: Apparent acid dissociation constants (pKa) of LNP systems were determined according to a procedure described in the literature (Jayaraman, M., et al., Maximizing the potency of siRNA lipid nanoparticles for hepatic gene silencing in vivo. Angewandte Chemie, 2012. 51(34): p. 8529-33). Briefly, 2-(p-toluidino)-6-napthalene sulfonic acid (TNS, Sigma-Aldrich, St. Louis, Mo.) and LNP were diluted in buffer (10 mM HEPES, 10 mM MES and 10 mM ammonium acetate) with pH ranges from 2.5 to 11. Final concentration of TNS or total lipid was 6 μM. Samples were then mixed and fluorescence intensity was measured (Ex/Em: 321/445 nm) using a Perkin Elmer LS55. A sigmoidal best fit analysis was applied and the pKa was measured as the pH at half-maximal fluorescence intensity.

HepG2 cells = test: LNP luciferase mRNA expression in cultured HepG2 cells; type: cell-based; conditions: 0.125-1 μg/mL luciferase mRNA, 16-24 hr
Experimental: Cells were treated with LNP formulations containing ionizable lipids of the disclosure and luciferase mRNA at concentrations of 0.125-1 μg/mL. The level of luminescence was measured post treatment. From left-to-right, the ionizable lipids incorporated in the LNPs were INT-A001 (white bar), INT-A002 (dotted bar), INT-A003 (black bar) and INT-A004 (gray bar).
The activity of the ionizable lipids in vitro was evaluated in cultured HepG2 cells. LNPs containing Firefly Luciferase mRNA were prepared as described in Example 2. LNPs were diluted to 0.125-1 μg/mL with DMEM media containing 10% FBS and incubated with HepG2 cells for 16-24 hr. Cells were then lysed with Glo-Lysis Buffer (Promega). Equal amounts of Steady-Glo reagent (Promega) was added to each sample and the level of luminescence was determined using a Synergy LX plate reader (BioTek).

[4] = test system: Firefly Luciferase mRNA expression in liver; test: LNP luciferase mRNA expression in vivo in the liver of mice; parameters: species or system mouse; conditions: C57Bl/6 mice, 1 mg/kg mRNA i.v., liver at 4 hours post-injection
Experimental: Lipid nanoparticle (LNP) formulations containing cationic lipids of the disclosure and Luciferase mRNA were injected via a tail vein in C57Bl/6 wild-type mice at mRNA dose of 1 mg/kg and the luminescence in the liver was measured post injection. From left-to-right, the cationic lipids incorporated in the LNP-mRNA were INT-A001, INT-A002, INT-A003 and INT-A004. Untreated animals were injected with phosphate buffered saline (PBS).
To assess in vivo activity, LNPs containing Firefly Luciferase mRNA were prepared as described in Example 2. LNPs were diluted with PBS and administered at 1 mg/kg intravenously via tail vein in 6 to 8 weeks old female C57Bl/6 mice (Charles River Laboratories, Wilmington, Mass.). At 4 hours post-injection, animals were euthanized and the livers were collected. Approximately 100 mg of liver was homogenized in 0.5 mL Glo Lysis Buffer (Promega). The homogenate was further diluted 1:4 with the lysis buffer and then 50 μL of diluted homogenate was added to 50 μL Steady-Glo reagent (Promega). The level of luminescence was determined using a Synergy LX plate reader (BioTek).

[5] = RNA or antisense oligonucleotide encapsulation efficiency (Quant-iT Ribogreen RNA / Oligreen ssDNA assays); type: physicochemical
Experimental: The RNA or antisense oligonucleotide encapsulation efficiency was determined using the Quant-iT Ribogreen RNA or Oligreen ssDNA Assays, respectively (Life Technologies, Burlington, ON). Briefly, LNP was incubated at 37° C. for 10 min in the presence or absence of 1% Triton X-100 (Sigma-Aldrich, St. Louis, Mo.) followed by the addition of the Ribogreen or Oligreen reagent. The fluorescence intensity (Ex/Em: 480/520 nm) was determined and samples treated with Triton X-100 represent total nucleic acid while untreated samples represent unencapsulated nucleic acid.
To prepare the LNPs, ionizable lipid, DSPC, cholesterol and PEG-DMPE were dissolved in ethanol. The siRNA was dissolved in pH 4.0-6.2 buffer composed of 10-50 mM acetate, succinate or citrate. In select cases, 10-50 mM 4-(2-Hydroxyethyl)piperazine-1-ethanesulfonic acid (HEPES) or 2-(N-Morpholino)ethanesulfonic acid (MES) buffer was used. LNP were prepared by rapidly mixing the lipid components in ethanol (in molar ratio of 50/10/38.5/1.5 of […]) with nucleic acids in aqueous buffer at a volumetric flow rate ratio of 1:3 (ethanol to aqueous, combined flow rate >12 mL/min) at room temperature. Typically, siRNA/lipids ratios were targeted for 0.056 wt/μmol. The product was then dialyzed against 1× phosphate-buffered saline (PBS) at pH 7.4 for 24 hours to remove residual ethanol and to raise the pH. PBS was refreshed after 4 hours.

[6] = HA incorporation into LNP (HA:Lipid ratio); type: physicochemical; conditions: LNP containing ionizable lipid and HA (8-15 kDa)
Experimental: as §1
Hyaluronic acid was used as an example of anionic cargos. LNPs were prepared as described in Example 2 containing HA with a molecular weight of 8-15 kDa.

[7] = LNP containing ionizable lipid and Luciferase mRNA
[8] = LNP containing ionizable lipid and a 4.2 kDa acidic peptide (net charge -3)
[9] = LNP containing ionizable lipid and antisense oligonucleotide
[10] = LNP containing ionizable lipid and siRNA
[11] = LNP containing ionizable lipid and HA (8-15 kDa)
[12] = LNP containing ionizable lipid and a 2.0 kDa acidic peptide (net charge -3)
[13] = LNP containing ionizable lipid and a 2.0 kDa basic peptide (net charge +4)

SMILES: CCCCC/C=C\C/C=C\CCCCCCCC(=O)O[C@@H](CCCCCCCC)[C@@H](CCCCCCCC(=O)OCCN(C)C)OC(=O)CCCCCCC/C=C\C/C=C\CCCCC (racemic) [INT-A001, 2-(Dimethylamino)ethyl (±)-syn-9,10-dilinoleoxystearate]
- Particle Diameter [1, 7]: 43 nm
- Polydispersity index (PDI) [1, 7]: 0.064
- Particle Diameter [1, 8]: 48 nm
- Polydispersity index (PDI) [1, 8]: 0.021
- Particle Diameter [1, 9]: 44 nm
- Polydispersity index (PDI) [1, 9]: 0.103
- Particle Diameter [1, 10]: 50 nm
- Polydispersity index (PDI) [1, 10]: 0.059
- Peptide:Lipid [2, 8]: 0.161 wt/wt
- Activity in mediating FVII gene-silencing (residual serum FVII levels) (factor VII (FVII)): active in mediating gene-silencing
- Apparent pKa [3]: 6.3
- Activity in delivering mRNA and inducing its expression in vitro (luminescence) (HepG2 cells): can effectively deliver mRNA
- Activity in delivering mRNA and inducing mRNA expression in vivo (liver luminescence) [4]: can effectively deliver mRNA
- Encapsulation Efficiency [5, 7]: 96%
- Encapsulation Efficiency [5, 9]: 84%
- Encapsulation Efficiency [5, 10]: 89%

SMILES: CCCCC/C=C\C/C=C\CCCCCCCC(=O)O[C@@H](CCCCCCCC)[C@@H](CCCCCCCC(=O)OCCCN(CC)CC)OC(=O)CCCCCCC/C=C\C/C=C\CCCCC (racemic) [INT-A002, 3-(Diethylamino)propyl (±)-syn-9,10-dilinoleoxystearate]
- Particle Diameter [1, 11]: 83 nm
- Polydispersity index (PDI) [1, 11]: 0.027
- Particle Diameter [1, 7]: 47 nm
- Polydispersity index (PDI) [1, 7]: 0.053
- Particle Diameter [1, 8]: 62 nm
- Polydispersity index (PDI) [1, 8]: 0.015
- Particle Diameter [1, 9]: 49 nm
- Polydispersity index (PDI) [1, 9]: 0.096
- Particle Diameter [1, 10]: 52 nm
- Polydispersity index (PDI) [1, 10]: 0.063
- Peptide:Lipid [2, 8]: 0.157 wt/wt
- ED 50 (effective dose to achieve 50% gene-silencing) (factor VII (FVII); i.v. LNP FVII siRNA, estimated): less than 0.1 mg/kg
- Activity in mediating FVII gene-silencing (residual serum FVII levels) (factor VII (FVII)): active in mediating gene-silencing; also recorded: most active
- HA:Lipid [6]: 0.093 wt/wt
- Activity in delivering mRNA and inducing its expression in vitro (luminescence) (HepG2 cells): can effectively deliver mRNA
- Activity in delivering mRNA and inducing mRNA expression in vivo (liver luminescence) ([4]; 1 mg/kg): can effectively deliver mRNA; also recorded: most active
- Encapsulation Efficiency [5, 7]: 99%
- Encapsulation Efficiency [5, 9]: 92%
- Encapsulation Efficiency [5, 10]: 97%

SMILES: CCCCC/C=C\C/C=C\CCCCCCCC(=O)O[C@@H](CCCCCCCC)[C@@H](CCCCCCCC(=O)OCCCN(C)C)OC(=O)CCCCCCC/C=C\C/C=C\CCCCC (racemic) [INT-A003, 3-(Dimethylamino)propyl (±)-syn-9,10-dilinoleoxystearate]
- Particle Diameter [1, 11]: 64 nm
- Polydispersity index (PDI) [1, 11]: 0.035
- Particle Diameter [1, 7]: 49 nm
- Polydispersity index (PDI) [1, 7]: 0.050
- Particle Diameter [1, 12]: 142 nm
- Polydispersity index (PDI) [1, 12]: 0.025
- Particle Diameter [1, 8]: 76 nm
- Polydispersity index (PDI) [1, 8]: 0.031
- Particle Diameter [1, 9]: 54 nm
- Polydispersity index (PDI) [1, 9]: 0.036
- Particle Diameter [1, 10]: 55 nm
- Polydispersity index (PDI) [1, 10]: 0.043
- Peptide:Lipid [2, 12]: 0.074 wt/wt
- Peptide:Lipid [2, 8]: 0.160 wt/wt
- Activity in mediating FVII gene-silencing (residual serum FVII levels) (factor VII (FVII)): active in mediating gene-silencing
- HA:Lipid [6]: 0.094 wt/wt
- Activity in delivering mRNA and inducing its expression in vitro (luminescence) (HepG2 cells): can effectively deliver mRNA; also recorded: most active
- Activity in delivering mRNA and inducing mRNA expression in vivo (liver luminescence) [4]: can effectively deliver mRNA
- Encapsulation Efficiency [5, 7]: 99%
- Encapsulation Efficiency [5, 9]: 89%
- Encapsulation Efficiency [5, 10]: 92%

SMILES: CCCCC/C=C\C/C=C\CCCCCCCC(=O)O[C@@H](CCCCCCCC)[C@@H](CCCCCCCC(=O)OCCN(CC)CC)OC(=O)CCCCCCC/C=C\C/C=C\CCCCC (racemic) [INT-A004, 2-(Diethylamino)ethyl (±)-syn-9,10-dilinoleoxystearate]
- Particle Diameter [1, 7]: 42 nm
- Polydispersity index (PDI) [1, 7]: 0.090
- Particle Diameter [1, 12]: 59 nm
- Polydispersity index (PDI) [1, 12]: 0.051
- Particle Diameter [1, 8]: 40 nm
- Polydispersity index (PDI) [1, 8]: 0.034
- Particle Diameter [1, 9]: 45 nm
- Polydispersity index (PDI) [1, 9]: 0.065
- Particle Diameter [1, 10]: 58 nm
- Polydispersity index (PDI) [1, 10]: 0.024
- Peptide:Lipid [2, 12]: 0.073 wt/wt
- Peptide:Lipid [2, 8]: 0.158 wt/wt
- Apparent pKa [3]: 5.8
- Activity in delivering mRNA and inducing its expression in vitro (luminescence) (HepG2 cells): can effectively deliver mRNA
- Activity in delivering mRNA and inducing mRNA expression in vivo (liver luminescence) [4]: can effectively deliver mRNA
- Encapsulation Efficiency [5, 7]: 96%
- Encapsulation Efficiency [5, 9]: 88%
- Encapsulation Efficiency [5, 10]: 61%

SMILES: CCCCC/C=C\C/C=C\CCCCCCCC(=O)O[C@@H](CCCCCCCC)[C@@H](CCCCCCCC(=O)O)OC(=O)CCCCCCC/C=C\C/C=C\CCCCC (racemic) [INT-A008, (±)-syn-9,10-Dilinoleoxystearic Acid]
- Particle Diameter [1, 13]: 39 nm
- Polydispersity index (PDI) [1, 13]: 0.058
- Peptide:Lipid [2, 13]: 0.104 wt/wt

SMILES: CCCCCCCCC(CCCCCC)C(=O)O[C@@H](CCCCCCCC)[C@@H](CCCCCCCC(=O)O)OC(=O)C(CCCCCC)CCCCCCCC (mixture of isomers) [INT-A009, (±)-syn-9,10-Bis(2-hexyldecanoyloxy)stearic Acid]
- Particle Diameter [1, 13]: 39 nm
- Polydispersity index (PDI) [1, 13]: 0.057
- Peptide:Lipid [2, 13]: 0.121 wt/wt
